Data as given in PMC8315078, “Molecular imaging of fibroblast activation protein after myocardial infarction using the novel radiotracer [^68Ga]MHLL1” (Theranostics, 2021).

Experiments:
[1] = target: fibroblast activation protein (murine FAP, mFAP) (Mus musculus, UniProt P97321)
[2] = target: T1, fibroblast activation protein (human FAP, hFAP) (Homo sapiens, UniProt Q12884); experiment: displacement of […]MHLL1 by cold compound in hFAP-transfected HT1080 cells (internalized activity); wild-type cells negative; format: cell-based
T1 sequence (Q12884 1-760): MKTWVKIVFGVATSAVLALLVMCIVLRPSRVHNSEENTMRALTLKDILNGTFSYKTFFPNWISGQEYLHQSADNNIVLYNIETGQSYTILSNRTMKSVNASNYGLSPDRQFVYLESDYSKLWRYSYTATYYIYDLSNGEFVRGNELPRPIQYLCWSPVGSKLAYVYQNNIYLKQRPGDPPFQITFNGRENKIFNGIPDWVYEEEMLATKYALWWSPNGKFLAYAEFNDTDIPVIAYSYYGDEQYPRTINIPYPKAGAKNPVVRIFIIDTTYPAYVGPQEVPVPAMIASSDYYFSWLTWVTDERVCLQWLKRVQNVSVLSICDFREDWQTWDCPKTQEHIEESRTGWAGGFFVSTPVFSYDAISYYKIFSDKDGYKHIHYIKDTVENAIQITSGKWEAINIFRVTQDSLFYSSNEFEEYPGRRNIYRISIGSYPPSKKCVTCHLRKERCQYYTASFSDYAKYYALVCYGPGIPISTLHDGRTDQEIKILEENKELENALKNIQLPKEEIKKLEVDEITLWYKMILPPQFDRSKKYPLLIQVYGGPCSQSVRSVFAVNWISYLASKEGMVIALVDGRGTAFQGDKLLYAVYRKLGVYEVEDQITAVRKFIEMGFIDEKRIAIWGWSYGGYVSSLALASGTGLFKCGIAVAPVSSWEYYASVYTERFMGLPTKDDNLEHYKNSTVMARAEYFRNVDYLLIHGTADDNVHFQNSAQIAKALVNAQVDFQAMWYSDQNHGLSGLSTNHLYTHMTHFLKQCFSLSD

fibroblast activation protein (murine FAP, mFAP), sequence (P97321 whole entry): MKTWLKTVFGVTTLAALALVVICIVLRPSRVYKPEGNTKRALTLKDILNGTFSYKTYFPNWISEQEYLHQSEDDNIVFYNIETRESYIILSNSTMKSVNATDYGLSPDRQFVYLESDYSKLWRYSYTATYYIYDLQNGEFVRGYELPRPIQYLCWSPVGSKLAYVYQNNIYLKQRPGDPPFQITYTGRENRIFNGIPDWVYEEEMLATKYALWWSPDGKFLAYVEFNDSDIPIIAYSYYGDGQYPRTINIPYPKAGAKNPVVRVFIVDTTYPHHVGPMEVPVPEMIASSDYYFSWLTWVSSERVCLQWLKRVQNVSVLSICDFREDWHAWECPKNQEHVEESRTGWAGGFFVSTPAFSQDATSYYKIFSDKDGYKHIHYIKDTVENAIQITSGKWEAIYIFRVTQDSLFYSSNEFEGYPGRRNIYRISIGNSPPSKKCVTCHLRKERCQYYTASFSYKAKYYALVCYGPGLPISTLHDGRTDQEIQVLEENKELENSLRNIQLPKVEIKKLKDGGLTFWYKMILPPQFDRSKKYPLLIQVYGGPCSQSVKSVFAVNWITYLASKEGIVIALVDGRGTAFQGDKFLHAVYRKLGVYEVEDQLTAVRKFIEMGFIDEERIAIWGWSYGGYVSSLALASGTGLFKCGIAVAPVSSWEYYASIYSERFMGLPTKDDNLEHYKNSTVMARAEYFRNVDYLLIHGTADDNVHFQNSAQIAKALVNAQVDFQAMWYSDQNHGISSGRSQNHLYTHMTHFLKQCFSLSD

Structure (SMILES): N#C[C@@H]1CCCN1C(=O)CNC(=S)Nc1ccc(CNC(=O)CCC2C(=O)[O][Ga]3[O]C(=O)CN4CCN(CCN2CC4)CC(=O)[O]3)cc1 (stereo partly drawn) [[^natGa]MHLL1, [^68Ga]Ga-2,2'-(7-(1-carboxy-4-((4-(3-(2-((S)-2-cyano-pyrrolidin-1-yl)-2-oxoethyl)thioureido)benzyl)amino)-4-oxobutyl)-1,4,7-triazonane-1,4-diyl)diacetic acid]
- IC50 [1]: 142 nM
- IC50 [2]: 212 nM
